Reference: ChEMBL document CHEMBL1127470, “Analogues of the marine immunosuppressant microcolin A: preparation and biological activity” (J Med Chem, 1994)

Tests used:
[1] = organism: Mus musculus; assay: The compound was tested for inhibition of murine splenocyte proliferation by [3H]thymidine incorporation; type: functional, organism-based
[2] = organism: Homo sapiens; assay: The compound was tested for inhibition of human splenocyte proliferation by [3H]thymidine incorporation; type: functional, organism-based

| SMILES | EC50 [1] | EC50 [2] |
| --- | --- | --- |
| CCCCC(C)CC(C)C(=O)N(C)[C@@H](CC(C)C)C(=O)N[C@H](C(=O)N(C)[C@H](C(=O)N1C[C@@H](O)C[C@H]1C(=O)N1C(=O)C=CC1C)C(C)C)C(C)OC(C)=O (some centres not stated) | 0.02 nM | 0.02 nM |
| CCCCC(C)CC(C)C(=O)N(C)[C@@H](CC(C)C)C(=O)N[C@H](C(=O)N(C)[C@H](C(=O)N1C[C@@H](O)C[C@H]1C(=O)N1C(=O)C=CC1C)C(C)C)C(C)O (some centres not stated) | 0.006 nM | 0.04 nM |
| CCCCC(C)CC(C)C(=O)N(C)[C@@H](CC(C)C)C(=O)N[C@H](C(=O)N(C)[C@H](C(=O)N1C[C@@H](OC(C)=O)C[C@H]1C(=O)N1C(=O)C=CC1C)C(C)C)C(C)OC(C)=O (some centres not stated) | 19 nM | 10.2 nM |
| CCCCC(C)CC(C)C(=O)N(C)[C@@H](CC(C)C)C(=O)N[C@H](C(=O)N(C)[C@H](C(=O)N1CCC[C@H]1C(=O)N1C(=O)C=CC1C)C(C)C)C(C)OC(C)=O (some centres not stated) | 20.5 nM | 4.1 nM |
| CCCCC(C)CC(C)C(=O)N(C)[C@@H](CC(C)C)C(=O)N[C@H](C(=O)N(C)[C@H](C(=O)OC)C(C)C)C(C)OO (some centres not stated) | 380 nM | 380 nM |
| CCCCC(C)CC(C)C(=O)N(C)[C@@H](CC(C)C)C(=O)N[C@H](C(=O)N(C)[C@H](C(=O)N1C[C@@H](O)C[C@H]1C(=O)OC)C(C)C)[C@@H](C)O (some centres not stated) | > 781 nM | > 781 nM |
| CCCCC(C)CC(C)C(=O)N(C)[C@@H](CC(C)C)C(=O)N[C@@H]1C(=O)N(C)[C@@H](C(C)C)C(=O)O[C@@H]1C (some centres not stated) | 10 nM | 8.1 nM |
| CCCCC(C)CC(C)C(=O)N(C)[C@@H](CC(C)C)C(=O)N[C@H](C(=O)N(C)[C@H](C(=O)N1CCC[C@H]1C(=O)N1C(=O)CCC1C)C(C)C)C(C)OC(C)=O (some centres not stated) | > 668 nM | 341 nM |
| CC1C=CC(=O)N1C(=O)[C@@H]1C[C@H](O)CN1 (some centres not stated) | > 2400 nM | > 2400 nM |
| CCCCC(C)CC(C)C(=O)N(C)[C@@H](CC(C)C)C(=O)N[C@H](C(=O)N(C)[C@H](C(=O)N1C[C@@H](O)C[C@H]1C(=O)N1C(=O)CCC1C)C(C)C)C(C)OC(C)=O (some centres not stated) | > 668 nM | > 668 nM |
| CCCCC(C)CC(C)C(=O)N(C)[C@@H](CC(C)C)C(=O)N[C@H](C(=O)N(C)[C@H](C(=O)N1CC(=O)C[C@H]1C(=O)N1C(=O)C=CC1C)C(C)C)C(C)OC(C)=O (single isomer, unassigned) | 5.4 nM | 5.4 nM |
